Laboratory results published in ChEMBL document CHEMBL1201862, “PubChem BioAssay data set” (2004).
Values joined by “and” are separate entries in the source; they are usually repeats but may differ in a detail not shown here. Equal entries are not always repeated.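 Tested at 5 concentrations; 48 h exposure; 96-well plates; endpoints linearly interpolated, else capped at highest concentration. GI50: concentration for 50% inhibition of growth.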 Active and inactive are the calls of the source. Cut-off read from the data, not from the text of the source: active = GI50 up to about 1.1 µM and inactive = higher.

How the values were obtained:
Test in all cases: NCI anticancer screen, dose series, 48 h
DMS-273 = system: DMS-273
LXFL 529 = system: LXFL 529
BT-549 = system: BT-549
MDA-MB-231 = system: MDA-MB-231
PC-3 = system: PC-3
T47D = system: T47D
MDA-N = system: MDA-N
RXF 631 = system: RXF 631
786-0 = system: 786-0

For Nc1ccn(C2OC(COP(=O)(O)Oc3ccccc3)C(O)C2O)c(=O)n1 (stereo not drawn), the GI50 (DMS-273) was 18.4 µM (inactive).
For CN1C(=O)c2ccccc2NC(=O)c2cnn(C)c21, the GI50 (DMS-273) was > 100 µM (inactive).
C/C(CCOC1CCCCO1)=C(\C)[Si](C)(C)C (stereo not drawn) was tested, and the GI50 (LXFL 529) was > 100 µM (inactive).
For c1cc(CNC2C3CCC(C3)C2c2c[nH]c3ccccc23)cc(CNC2C3CCC(C3)C2c2c[nH]c3ccccc23)c1 (stereo not drawn), the GI50 (BT-549) was 1.73 µM (inactive) and 1.75 µM (inactive), the GI50 (MDA-MB-231) was 1.59 µM (inactive) and 1.51 µM (inactive) and the GI50 (PC-3) was 1.6 µM (inactive) and 1.64 µM (inactive). The GI50 (T47D) was 1.75 µM (inactive) and 1.74 µM (inactive).
For COc1ccc(N2C(=O)C(=O)C3(CCCCC3)C2=O)c2ccccc12, the GI50 (MDA-MB-231) was > 10 µM (inactive), the GI50 (MDA-N) was > 10 µM (inactive) and the GI50 (PC-3) was > 10 µM (inactive). For the same compound, the GI50 (T47D) was > 10 µM (inactive).
C[n+]1cccc2c(=O)c3ccccc3oc21 was tested, and the GI50 (MDA-MB-231) was > 100 µM (inactive), the GI50 (MDA-N) was > 100 µM (inactive) and the GI50 (PC-3) was > 100 µM (inactive). For the same compound, the GI50 (T47D) was > 100 µM (inactive).
In the case of O=c1sc2ccccc2n1CC1CS1 (stereo not drawn), the GI50 (DMS-273) is reported as > 100 µM (inactive).
C=CCCCC12CCCc3cccc(c31)NC2=O (stereo not drawn) was tested, and the GI50 (RXF 631) was 20.6 µM (inactive).
In the case of COc1ccc(-n2cnnc2-c2nsc3ccccc23)cc1, the GI50 (DMS-273) is reported as 44.7 µM (inactive) and the GI50 (LXFL 529) is reported as > 100 µM (inactive).
With COc1ccc(N2C(=O)C(=O)N(C)C2=O)c2ccccc12 the GI50 (MDA-MB-231) was > 10 µM (inactive), the GI50 (PC-3) was > 10 µM (inactive) and the GI50 (T47D) was > 10 µM (inactive).
For CCN(CC)CCn1c(=O)c2c(C)c3oc4ccccc4oc3c(C)c2c1=O, the GI50 (786-0) was 48.2 µM (inactive), the GI50 (BT-549) was > 100 µM (inactive) and the GI50 (MDA-MB-231) was > 100 µM (inactive). For the same compound, the GI50 (MDA-N) was > 100 µM (inactive) and the GI50 (PC-3) was > 100 µM (inactive).
For COC1=CC(=O)c2c(c(O)c3oc4cc(OC)cc(C)c4c(=O)c3c2O)C1=O [BIKAVERIN], the GI50 (DMS-273) was 0.759 µM (active).
